Assay results as given in ChEMBL document CHEMBL2176928, “Discovery of novel inhibitors of amyloid β-peptide 1-42 aggregation” (J Med Chem, 2012).
Activity calls are given as the source filed them. The calls are words filed in the database; no cut-off is given here.

Legend:
[1] = Inhibition of aggregation of amyloid beta (17 to 40) assessed as fibril formation at 100 uM measured up to 10 hrs by turbidimetry assay
[2] = Cytotoxicity against human HeLa cells after 24 hrs by XTT assay; assay type: cell-based
[3] = Elongation of aggregates of GFP-fused amyloid beta (1 to 42) expressed in Podospora anserina extract assessed as reduction of amyloid beta SDS-resistant oligomers after 1 hr by SDS-PAGE and Western blot analysis
[4] = Inhibition of aggregation of amyloid beta (17 to 40) assessed as fibril formation at 100 uM measured up to 24 hrs by transmission electron microscopic analysis
[5] = Toxicity in Podospora anserina expressing GFP-fused amyloid beta (1 to 42) assessed as effect on lifespan and growth rate of fungi at 50 uM
[6] = Lipophilicity, log P of the compound; assay type: physicochemical; settings: octanol/water
Saccharomyces cerevisiae [7] = assay: Toxicity in yeast harboring erg6delta expressing human DHFR-fused amyloid beta (1 to 42) at 100 uM; assay type: organism-based; settings: in vivo
[8] = Inhibition of aggregation of amyloid beta (17 to 40) assessed as fibril formation at 100 uM measured up to 13 hrs by high throughput thioflavin-T binding assay
[9] = Inhibition of aggregation of GFP-fused amyloid beta (1 to 42) expressed in Podospora anserina assessed as reduction of amyloid beta SDS-resistant oligomers at 50 uM after 24 hrs by SDS-PAGE and Western blot analysis
[10] = molecular target: Amyloid-beta precursor protein (Homo sapiens) (UniProt P05067); assay: Inhibition of aggregation of human DHFR-fused amyloid beta (1 to 42) expressed in yeast harboring erg6delta assessed as increase in yeast viability at 10 uM measured up to 20 hrs in presence of MTX
[11] = Inhibition of aggregation of GFP-fused amyloid beta (1 to 42) expressed in Podospora anserina assessed as reduction of amyloid beta SDS-resistant oligomers at 50 uM after 10 hrs to 5 days by SDS-PAGE and Western blot analysis
[12] = molecular target: Amyloid-beta precursor protein (Homo sapiens) (UniProt P05067); assay: Inhibition of aggregation of human DHFR-fused amyloid beta (1 to 42) expressed in yeast harboring erg6delta assessed as increase in yeast viability measured up to 20 hrs in presence of MTX
[13] = Toxicity in Podospora anserina expressing GFP-fused amyloid beta (1 to 42) assessed as effect on lifespan and growth rate of fungi at 100 uM
[14] = Inhibition of aggregation of GFP-fused amyloid beta (1 to 42) expressed in Podospora anserina assessed as reduction of amyloid beta SDS-resistant oligomers at 100 uM after 24 hrs by SDS-PAGE and Western blot analysis
Saccharomyces cerevisiae [15] = assay: Toxicity in yeast harboring erg6delta expressing human DHFR-fused amyloid beta (1 to 42) at 10 uM; assay type: organism-based; settings: in vivo

Chain of Amyloid-beta precursor protein (Homo sapiens) (P05067 whole entry, the tested form may be a part): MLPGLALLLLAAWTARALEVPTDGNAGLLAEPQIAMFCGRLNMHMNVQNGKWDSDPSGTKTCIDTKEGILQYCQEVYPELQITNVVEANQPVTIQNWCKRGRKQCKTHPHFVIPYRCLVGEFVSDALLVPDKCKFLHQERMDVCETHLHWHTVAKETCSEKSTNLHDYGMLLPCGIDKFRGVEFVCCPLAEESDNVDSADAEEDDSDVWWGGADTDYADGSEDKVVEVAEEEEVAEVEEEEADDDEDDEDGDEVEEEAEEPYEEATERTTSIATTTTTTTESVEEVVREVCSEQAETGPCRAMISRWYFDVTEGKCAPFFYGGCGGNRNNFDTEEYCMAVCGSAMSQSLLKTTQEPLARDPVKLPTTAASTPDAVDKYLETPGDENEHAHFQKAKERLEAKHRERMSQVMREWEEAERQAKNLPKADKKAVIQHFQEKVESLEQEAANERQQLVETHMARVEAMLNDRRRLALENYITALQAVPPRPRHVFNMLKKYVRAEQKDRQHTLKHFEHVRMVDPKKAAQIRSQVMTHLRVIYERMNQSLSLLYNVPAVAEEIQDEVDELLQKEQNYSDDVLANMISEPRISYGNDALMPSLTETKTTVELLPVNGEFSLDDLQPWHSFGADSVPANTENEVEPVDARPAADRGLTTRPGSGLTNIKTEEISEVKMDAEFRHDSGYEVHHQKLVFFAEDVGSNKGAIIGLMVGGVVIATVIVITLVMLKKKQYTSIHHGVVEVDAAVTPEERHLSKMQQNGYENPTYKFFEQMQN

Row | inhibition [1] | Activity [3] | inhibition [4] | logP [6] | inhibition [8] | inhibition [9] | inhibition [11] | inhibition [14] | SMILES | MCC at 24 h [2] [µM] | Activity [5] | Activity (Saccharomyces cerevisiae [7]) | inhibition [10] | inhibition [12] | Activity [13] | Activity (Saccharomyces cerevisiae [15])
1 | Active | inactive | Active | 3.3 | Active | inactive | – | – | Nc1c(S(=O)(=O)c2ccc(Cl)cc2)cnc2cc(-c3ccccc3)nn12 | 22 | Non-toxic | Toxic | – | – | – | –
2 | Active | inactive | Active | 3.7 | Active | inactive | Active | – | O=C(Nc1ccccc1)Nc1ccc(Cl)cc1[N+](=O)[O-] | 20 | Toxic | Toxic | Active | – | – | –
3 | Active | inactive | Active | 2.8 | Active | – | Active | inactive | Cc1nc2sc3c(c2c(=O)o1)CCCC3 | 184 | – | – | Active | Dose-dependent effect | Toxic | –
4 | Active | – | Active | – | Active | – | – | – | CCCCC(CC)CNC(=N)NC(=N)NCCCCCCNC(=N)NC(=N)NCC(CC)CCCC.Cl.Cl (configuration not stated) [ALEXIDINE DIHYDROCHLORIDE] | 2 | – | – | – | – | – | Toxic
5 | Active | inactive | Active | 3.9 | Active | Active | Active | – | O=S(=O)(Nc1ccc(N2CCCCC2)cc1)c1cc(Cl)sc1Cl | 17 | Non-toxic | – | Active | Dose-dependent effect | – | –
